Experimental data reported in PubChem BioAssay (NCI).
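Briefly, cells in 96-well plates were exposed to five compound concentrations for 48 h, and endpoints were estimated by linear interpolation. GI50 is the concentration that inhibits growth by half. TGI: concentration producing complete growth inhibition.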

What was measured:
Assay in all cases: NCI-60 cell line screen, 48 h
[1] = test system: 786-0 renal
[2] = test system: A498 renal
[3] = test system: A549 NSCLC
[4] = test system: ACHN renal
[5] = test system: BT-549 breast
[6] = test system: CAKI-1 renal
[7] = test system: CCRF-CEM leukemia
[8] = test system: COLO 205 colon
[9] = test system: DU-145 prostate
[10] = test system: EKVX NSCLC
[11] = test system: HCC-2998 colon
[12] = test system: HCT-116 colon
[13] = test system: HCT-15 colon
[14] = test system: HL-60(TB) leukemia
[15] = test system: HOP-62 NSCLC
[16] = test system: HOP-92 NSCLC
[17] = test system: HS 578T breast
[18] = test system: HT29 colon
[19] = test system: IGROV1 ovarian
[20] = test system: K-562 leukemia
[21] = test system: KM12 colon
[22] = test system: LOX IMVI melanoma
[23] = test system: M14 melanoma
[24] = test system: MALME-3M melanoma
[25] = test system: MCF7 breast
[26] = test system: MDA-MB-231 breast
[27] = test system: MDA-MB-435
[28] = test system: MOLT-4 leukemia
[29] = test system: NCI-H226 lung
[30] = test system: NCI-H23 lung
[31] = test system: NCI-H460 lung
[32] = test system: NCI-H522 lung
[33] = test system: NCI/ADR-RES ovarian
[34] = test system: OVCAR-3 ovarian
[35] = test system: OVCAR-4 ovarian
[36] = test system: OVCAR-5 ovarian
[37] = test system: OVCAR-8 ovarian
[38] = test system: PC-3 prostate
[39] = test system: RPMI-8226 leukemia
[40] = test system: SF-268 CNS
[41] = test system: SF-295 CNS
[42] = test system: SF-539 CNS
[43] = test system: SK-MEL-2 melanoma
[44] = test system: SK-MEL-28 melanoma
[45] = test system: SK-MEL-5 melanoma
[46] = test system: SK-OV-3 ovarian
[47] = test system: SN12C renal
[48] = test system: SNB-19 CNS
[49] = test system: SNB-75 CNS
[50] = test system: SR leukemia
[51] = test system: SW-620 colon
[52] = test system: T-47D breast
[53] = test system: TK-10 renal
[54] = test system: U251 CNS
[55] = test system: UACC-257 melanoma
[56] = test system: UACC-62 melanoma
[57] = test system: UO-31 renal

## CC(=O)Nc1nc(C)c(-c2csc(Nc3ccccc3)n2)s1
[1]
  GI50: 3.25 µM
  TGI: 16.1 µM
[2]
  GI50: 1.49 µM
  TGI: 7.87 µM
[3]
  GI50: 6.39 µM
  TGI: 27 µM
[4]
  GI50: 4.25 µM
  TGI: 15.9 µM
[5]
  GI50: 2.06 µM
  TGI: 8.76 µM
[6]
  GI50: 4.15 µM
  TGI: 16.1 µM
[7]
  GI50: 4.11 µM
  TGI: 82 µM
[8]
  GI50: 7.66 µM
  TGI: 26.8 µM
[9]
  GI50: 5.23 µM
  TGI: 17.5 µM
[10]
  GI50: 2.94 µM
  TGI: 13.6 µM
[11]
  GI50: 8.83 µM
  TGI: 21.4 µM
[12]
  GI50: 3.76 µM
  TGI: 24.3 µM
[13]
  GI50: 1.96 µM
  TGI: 13.5 µM
[14]
  GI50: 10.5 µM
  TGI: 33.9 µM
[15]
  GI50: 6.55 µM
  TGI: 21.5 µM
[16]
  GI50: 1.57 µM
  TGI: 8.28 µM
[17]
  GI50: 2.35 µM
  TGI: 8.06 µM
[18]
  GI50: 3.89 µM
  TGI: 21.8 µM
[19]
  GI50: 2.14 µM
  TGI: 7.72 µM
[20]
  GI50: 3.68 µM
  TGI: > 100 µM
[21]
  GI50: 5.6 µM
  TGI: 19.6 µM
[22]
  GI50: 3.97 µM
  TGI: 17 µM
[23]
  GI50: 3.55 µM
  TGI: 16.4 µM
[24]
  GI50: 2.12 µM
  TGI: 11.7 µM
[25]
  GI50: 2.16 µM
  TGI: 12 µM
[26]
  GI50: 6.59 µM
  TGI: 21.2 µM
[27]
  GI50: 6.07 µM
  TGI: 19.7 µM
[28]
  GI50: 3.92 µM
  TGI: 28.6 µM
[29]
  GI50: 3.12 µM
  TGI: 15.4 µM
[30]
  GI50: 4.96 µM
  TGI: 20.7 µM
[31]
  GI50: 3.38 µM
  TGI: 14.1 µM
[32]
  GI50: 6.46 µM
  TGI: 22.9 µM
[33]
  GI50: 5.16 µM
  TGI: 23.2 µM
[34]
  GI50: 4.01 µM
  TGI: 15.7 µM
[35]
  GI50: 6.5 µM
  TGI: 26.6 µM
[36]
  GI50: 5.32 µM
  TGI: 20.6 µM
[37]
  GI50: 6.81 µM
  TGI: 20.5 µM
[38]
  GI50: 3 µM
  TGI: 23.5 µM
[39]
  GI50: 3.57 µM
  TGI: 31.7 µM
[40]
  GI50: 5.4 µM
  TGI: 19.3 µM
[41]
  GI50: 2.32 µM
  TGI: 13 µM
[42]
  GI50: 4.07 µM
  TGI: 15.5 µM
[43]
  GI50: 10.7 µM
  TGI: 24.4 µM
[44]
  GI50: 4.13 µM
  TGI: 17.2 µM
[45]
  GI50: 4.31 µM
  TGI: 16.2 µM
[46]
  GI50: 3.43 µM
  TGI: 42.8 µM
[47]
  GI50: 3.6 µM
  TGI: 16.3 µM
[48]
  GI50: 8.09 µM
  TGI: 20.6 µM
[49]
  GI50: 4.31 µM
  TGI: 18.1 µM
[50]
  GI50: 2.37 µM
  TGI: > 100 µM
[51]
  GI50: 9.82 µM
  TGI: 23.1 µM
[52]
  GI50: 1.21 µM
  TGI: 6.55 µM
[53]
  GI50: 8.6 µM
  TGI: 24 µM
[54]
  GI50: 3.39 µM
  TGI: 20.8 µM
[55]
  GI50: 10.9 µM
  TGI: 23.6 µM
[56]
  GI50: 2.34 µM
  TGI: 12.6 µM
[57]
  GI50: 2.55 µM
  TGI: 12.9 µM
